# In ChEMBL document CHEMBL3044638, “Biological evaluation of imidazole derivatives as inhibitors of hydroperoxide lyase, a key enzyme in plant volatile biosynthesis” (J Pestic Sci, 2011):
# Assays:
# [1] = biological target: T1, Fatty acid hydroperoxide lyase, chloroplastic (Solanum lycopersicum, UniProt K4CF70); assay: Binding affinity to recombinant Solanum lycopersicum (tomato) fatty acid 13-hydroperoxide lyase by optical difference spectroscopy
# T1 sequence (K4CF70 whole entry): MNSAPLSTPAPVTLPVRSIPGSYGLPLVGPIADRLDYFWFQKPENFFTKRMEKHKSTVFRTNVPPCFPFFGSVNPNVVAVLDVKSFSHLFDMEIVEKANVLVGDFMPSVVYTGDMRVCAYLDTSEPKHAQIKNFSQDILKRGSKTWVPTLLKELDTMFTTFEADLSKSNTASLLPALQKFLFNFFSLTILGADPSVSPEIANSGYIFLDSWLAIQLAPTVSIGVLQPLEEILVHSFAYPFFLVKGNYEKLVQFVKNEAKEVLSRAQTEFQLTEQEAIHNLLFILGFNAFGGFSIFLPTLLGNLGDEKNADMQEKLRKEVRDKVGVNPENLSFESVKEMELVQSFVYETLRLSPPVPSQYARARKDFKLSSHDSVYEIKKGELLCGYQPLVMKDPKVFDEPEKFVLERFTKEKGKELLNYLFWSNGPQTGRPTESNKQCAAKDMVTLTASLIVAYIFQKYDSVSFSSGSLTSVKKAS
# [2] = biological target: T1, Fatty acid hydroperoxide lyase, chloroplastic; assay: Inhibition of recombinant Solanum lycopersicum (tomato) fatty acid 13-hydroperoxide lyase using (13S)-HPOT substrate by spectrophotometry
Structure (SMILES),Kd [1],IC50 [2]
Clc1ccc(C(Cn2ccnc2)OCc2ccc(Cl)nc2)c(Cl)c1 (centres undefined),–,> 100 µM
Clc1ccc(C(Cn2ccnc2)OCc2ccc(Cl)c(Cl)c2)c(Cl)c1 (centres undefined),–,> 100 µM
Fc1ccc(COC(Cn2ccnc2)c2ccc(Cl)cc2Cl)c(F)c1 (centres undefined),–,> 100 µM
Fc1ccc(F)c(COC(Cn2ccnc2)c2ccc(Cl)cc2Cl)c1 (centres undefined),–,> 100 µM
Fc1ccc(COC(Cn2ccnc2)c2ccc(Cl)cc2Cl)cc1F (centres undefined),–,> 100 µM
Fc1cc(F)cc(COC(Cn2ccnc2)c2ccc(Cl)cc2Cl)c1 (centres undefined),–,> 100 µM
Clc1ccc(C(Cn2ccnc2)OCc2c(Cl)cccc2Cl)c(Cl)c1 (centres undefined) [ISOCONAZOLE],–,> 100 µM

# Results, then the compound that gave them:
Kd [1],IC50 [2],Structure (SMILES)
13.5 µM,39 µM,Clc1ccc(C(Cn2ccnc2)OCc2ccccc2)c(Cl)c1 (centres undefined)
–,> 100 µM,Clc1ccc(C(Cn2ccnc2)OCc2ccccc2Cl)c(Cl)c1 (centres undefined)
–,> 100 µM,Clc1cccc(COC(Cn2ccnc2)c2ccc(Cl)cc2Cl)c1 (centres undefined)
–,46 µM,Clc1ccc(C(Cn2ccnc2)OCc2cccc(Cl)c2Cl)c(Cl)c1 (centres undefined)
–,65 µM,Clc1ccc(COC(Cn2ccnc2)c2ccc(Cl)cc2Cl)c(Cl)c1 (centres undefined) [MICONAZOLE]
–,50 µM,CC(Cc1ccc(O)c(O)c1)C(C)Cc1ccc(O)c(O)c1 (centres undefined) [NORDIHYDROGUAIARETIC ACID]
